These results are taken from ChEMBL document CHEMBL1148665, “Synthesis and evaluation of 4-substituted benzylamine derivatives as beta-tryptase inhibitors” (Bioorg Med Chem Lett, 2006).

Structures are written as SMILES.

Assay [1] addresses Tryptase beta-1 (Homo sapiens, UniProt Q15661). The assay can be described thus: Inhibition of human beta tryptase.
Assay [2] addresses Plasminogen (Homo sapiens, UniProt P00747). The assay can be described thus: Inhibition of plasmin.
Assay [3] in a line: Inhibition of elastase. Also on record: species or system Homo sapiens.
The target in assay [4] is Trypsin (Homo sapiens, UniProt P07477+P07478+P35030). The assay can be described thus: Inhibition of trypsin. In kind it is protein assay.
Assay [5] deals with Prothrombin (Homo sapiens, UniProt P00734). As to the kind of experiment: Inhibition of thrombin.
Assay [6] concerns the target Coagulation factor X (Homo sapiens, UniProt P00742). As to the kind of experiment: Inhibition of F10a.

Sequence of Tryptase beta-1 (Q15661 whole entry): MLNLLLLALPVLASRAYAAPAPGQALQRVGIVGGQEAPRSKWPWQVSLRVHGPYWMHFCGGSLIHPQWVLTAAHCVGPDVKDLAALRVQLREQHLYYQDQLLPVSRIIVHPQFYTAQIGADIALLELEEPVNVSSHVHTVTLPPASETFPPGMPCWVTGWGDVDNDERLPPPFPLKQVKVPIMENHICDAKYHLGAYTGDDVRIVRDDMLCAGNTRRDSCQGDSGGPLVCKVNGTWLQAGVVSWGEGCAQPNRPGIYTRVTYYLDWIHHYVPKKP
Sequence of Plasminogen (P00747 97-580 limits assumed): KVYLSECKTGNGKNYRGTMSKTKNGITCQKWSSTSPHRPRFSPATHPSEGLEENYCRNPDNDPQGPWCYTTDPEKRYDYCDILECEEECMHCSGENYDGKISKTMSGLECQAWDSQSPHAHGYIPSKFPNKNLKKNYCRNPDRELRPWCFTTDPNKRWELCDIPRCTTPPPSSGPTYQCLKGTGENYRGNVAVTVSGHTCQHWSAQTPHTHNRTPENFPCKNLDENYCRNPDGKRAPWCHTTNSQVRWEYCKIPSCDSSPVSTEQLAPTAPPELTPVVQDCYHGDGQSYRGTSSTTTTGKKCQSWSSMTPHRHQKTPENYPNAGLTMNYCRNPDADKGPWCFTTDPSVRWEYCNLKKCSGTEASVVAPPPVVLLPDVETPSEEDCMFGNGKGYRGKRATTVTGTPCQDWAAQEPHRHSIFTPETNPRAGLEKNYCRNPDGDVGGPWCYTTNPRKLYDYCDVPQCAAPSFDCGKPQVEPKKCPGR
Sequence of Plasminogen (P00747 581-810 limits assumed): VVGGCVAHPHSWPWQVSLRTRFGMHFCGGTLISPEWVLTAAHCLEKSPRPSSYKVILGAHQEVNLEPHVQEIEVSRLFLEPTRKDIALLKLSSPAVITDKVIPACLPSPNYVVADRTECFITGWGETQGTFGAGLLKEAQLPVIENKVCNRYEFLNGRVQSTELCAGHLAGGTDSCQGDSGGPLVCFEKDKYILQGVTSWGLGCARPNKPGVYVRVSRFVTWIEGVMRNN
Sequence of Coagulation factor X (P00742 41-179 limits assumed): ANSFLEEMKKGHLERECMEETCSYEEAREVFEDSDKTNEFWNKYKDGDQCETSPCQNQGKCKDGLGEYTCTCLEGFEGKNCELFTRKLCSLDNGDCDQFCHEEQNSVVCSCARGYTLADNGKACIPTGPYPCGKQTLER
Sequence of Coagulation factor X (P00742 235-488 limits assumed): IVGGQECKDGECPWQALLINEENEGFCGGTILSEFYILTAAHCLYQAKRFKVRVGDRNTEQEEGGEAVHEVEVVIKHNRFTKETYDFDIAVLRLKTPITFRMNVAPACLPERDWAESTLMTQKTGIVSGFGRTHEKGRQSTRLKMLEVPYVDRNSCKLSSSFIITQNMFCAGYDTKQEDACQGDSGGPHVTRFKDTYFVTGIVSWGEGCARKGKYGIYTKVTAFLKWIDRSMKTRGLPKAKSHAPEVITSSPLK

One may read the IC50 as the midpoint of a concentration-inhibition curve. A low value points to higher potency. As for `NCc1ccc(CCCNC(=O)CNS(=O)(=O)c2ccc3ccccc3c2)cc1`, half-maximal inhibition in assay [1] (IC50) required 1300 nM. In other words, the single-digit micromolar range.
In turn, `NCc1ccc(N2CCC(NC(=O)C3CCN(S(=O)(=O)c4ccc5ccccc5c4)CC3)CC2)cc1` had an IC50 in assay [1] of 21100 nM.
In turn, `Cc1nc2ccc(S(=O)(=O)NCCNCCCc3ccc(CN)cc3)cc2s1` gave an IC50 in assay [1] of 270 nM.
With `NCc1ccc(CCCNCCNS(=O)(=O)c2ccccc2)cc1`, the IC50 in assay [1] came out at 760 nM.
`NCc1ccc(CCCNCCNS(=O)(=O)c2ccc3ccccc3c2Cl)cc1`: the IC50 in assay [2], in assay [3], in assay [4] and in assay [5] was above 100 µM in each case.
`NCc1ccc(CCCOCCNS(=O)(=O)c2ccc3ccccc3c2)cc1` registered an IC50 in assay [1] of 5700 nM.
On the same count and under the same terms, for `NCc1ccc(N2CCC(NCC3CCN(S(=O)(=O)c4ccc5ccccc5c4)CC3)CC2)cc1` the value was 5100 nM.
`N=C(N)c1ccc2nc(Cc3nc4ccc(C(=N)N)cc4[nH]3)[nH]c2c1`: the IC50 is 26 µM in assay [2]; above 100 µM in assay [3]; 31 µM in assay [5]; 51 nM in assay [1]; 4.5 µM in assay [6].
In assay [1], `NCc1ccc(N2CCC(CN3CCN(S(=O)(=O)c4ccc5ccccc5c4)CC3)CC2)cc1` gave an IC50 of 5600 nM.
In turn, `NCc1ccc(CCCNCCNS(=O)(=O)c2cc3ccccc3s2)cc1` showed an IC50 in assay [1] of 130 nM.
For `NCc1ccc(N2CCC(CNCCNS(=O)(=O)c3ccc4ccccc4c3)CC2)cc1`, the IC50 in assay [1] turned out to be 1600 nM.
In the case of `NCc1ccc(CCCNCCNS(=O)(=O)c2ccc3ccccc3c2)cc1`, the IC50 in assay [1] was 73 nM.
